Test results as given in ChEMBL document CHEMBL1150835, “In vitro antiplasmodial activity of extracts of Tristaniopsis species and identification of the active constituents: ellagic acid and 3,4,5-trimethoxyphenyl-(6'-O-galloyl)-O-beta-D-glucopyranoside” (J Nat Prod, 2001).
≈ marks a conversion by molar mass, not a printed value.

Columns and labels:
[1] = test system: Plasmodium falciparum; assay: Antiplasmodial activity after 24 hrs against chloroquine-sensitive, mefloquine-resistant Plasmodium falciparum D6 infected human erythrocytes by [G-3H]hypoxanthine uptake; type: functional, organism-based; conditions: D6, 24 h
[2] = test system: Plasmodium falciparum; assay: Antiplasmodial activity after 24 hrs against chloroquine-resistant, mefloquine-sensitive Plasmodium falciparum W2 infected human erythrocytes by [G-3H]hypoxanthine uptake; type: functional, organism-based; conditions: W2, 24 h
[3] = Cytotoxicity against HSF assessed as decrease in proliferation at 100 uM by MTT assay; set-up: scale not given: the % may be the effect or the level left; conditions: human
[4] = test system: HepG2; assay: (§1) Cytotoxicity against human HepG2 cells assessed as decrease in proliferation at 100 uM by MTT assay; type: cell-based; conditions: hepg2, 100 µM
[5] = as §1; type: cell-based; conditions: HepG2 cells, read-out: Activity

SMILES | IC50 [1] [µg/mL] | IC50 [2] [µg/mL] | Activity [3] | Activity [4] | inhibition at 100 µM [5] [%]
COc1cc(O[C@@H]2O[C@H](COC(=O)c3cc(O)c(O)c(O)c3)[C@@H](O)[C@H](O)[C@H]2O)cc(OC)c1OC | 1.75 (≈ 3.5 µM) | 1.58 (≈ 3.18 µM) | Non-toxic | Non-toxic | –
O=c1oc2c(O)c(O)cc3c(=O)oc4c(O)c(O)cc1c4c23 [ELLAGIC ACID] | 0.145 (≈ 0.48 µM) | 0.103 (≈ 0.341 µM) | 20% | – | 9
O=C(O)c1cc(O)c(O)c(O)c1 [GALLIC ACID] | > 5 | – | – | – | –
OC(c1cc(C(F)(F)F)nc2c(C(F)(F)F)cccc12)C1CCCCN1 (configuration not stated) [MEFLOQUINE] | – | 0.00136 (≈ 0.00359 µM) | – | – | –
O=C(O)c1ccc(O)cc1 [PARABEN] | > 5 | – | – | – | –
O=C(O)c1ccc(O)c(O)c1 [PROTOCATECHUIC ACID] | > 5 | – | – | – | –
